Laboratory results as given in patent US6856913B1, “Decentralized patient management method” (Swineburn Limited, priority 1998, dated 2005).

Test system: children diagnosed with ADHD
Assay: SSVEP phase/latency change during the Continuous Performance Task (CPT A-X) before and one hour after stimulant medication
Assay type: in vivo, human
Settings: one hour after medication vs before
Method: An example of the invention will now be briefly described with reference to FIGS. 15 and 16. The method was used on patients who are children diagnosed with Attention Deficit […] Disorder (ADHD).
Children diagnosed with ADHD were tested to examine the effects of stimulant medication (methylphenidate or Ritalin) on the amplitude and phase of the steady state visually evoked potential (SSVEP). The children performed two cognitive tasks before the stimulant medication was administered and then repeat the tasks one hour after stimulant medication was administered.
The first task was a low demand vigilance task where the patients were required to press a micro switch on the predictable appearance of the number “5” in the repeated sequence “1, 2, 3, 4, 5”. The second task was known as the A-X version of the Continuous Performance Task (CPT A-X). In this more demanding task, patients were required to press a micro switch on the appearance of the letter “X” if and only if it has been preceded by the letter “A”.
FIGS. 15 and 16 illustrate the spatial distribution of the difference between the mean SSVEP phase, evaluated over the entire CPT A-X task before medication, and the point in time corresponding to the disappearance of the letter “A” in the CPT A-X task after medication.

SMILES: COC(=O)C(c1ccccc1)C1CCCCN1 (centres unmarked) [methylphenidate]
- change in SSVEP phase (latency) at prefrontal sites (FIG. 15, child diagnosed with ADHD and responding to the stimulant medication): large SSVEP latency reduction at prefrontal sites
- change in SSVEP phase (latency) at prefrontal sites (FIG. 16, different child diagnosed with ADHD and not responding to stimulant medication): absence of SSVEP latency reduction at prefrontal sites
